In patent US5157052A, “Method for inhibiting IgE production” (priority 1990, dated 1992):

System: CD23
Assay: Splenocyte cell surface density/distribution (FACS): CD23
Type: in vivo, mouse (Balb/c female)
Procedure: One group of 4 unstimulated Balb/c female mice is injected with PBS (Group A). Another (Group B) is injected with 20 μg (±) methyl 11α,16-dihydroxy-16-methyl-9-oxoprosta-5Z,13E-dien-1-oate as in Example 13. […] A 3 cm incision is made with a scalpel above the left hip, and the spleen is cut free from adjoining tissue and placed in a 100 mn plastic culture dish containing 10 ml PBS. The splenic cells are then made into a suspension, by rubbing the spleens between the rough, frosted ends of microscope slides repeatedly until the only remaining particulate matter is connective tissue. Cells are transferred to a 15 ml conical polystyrene tube and centrifuged in a centrifuge at 1200 rpm for 5 minutes. The supernatant is discarded by aspiration and the cell pellet is resuspended in 10 ml PBS, then centrifuged at 1200 rpm for 5 minutes. The supernatant is aspirated and the cell pellet is resuspended in 15 mM Tris, 140 mM Ammonium Chloride, to lyse red blood cells. After incubating at room temperature for 10 minutes the cell suspension is centrifuged at 1200 rpm for 10 minutes. The supernatant is discarded and the cell pellet is resuspended in 10 ml FACS Buffer (PBS containing 0.1% BSA and 0.1% Sodium Azide). The cell suspension is filtered through sterile glass wool plugged in the top of a pasteur pipet. Cells in the flow through are counted using a hemacytometer, then the cell suspension is centrifuged at 1200 rpm for 5 minutes. The supernatant is discarded and the cell pellet is resuspended in a volume of FACS Buffer that will yield 4×10^7 cells/ml. 10 μl (4×10^5 cells) is added to each well of a 96-well V-bottom plate. 25 μl of diluted monoclonal antibody directed against splenocyte cell surface proteins is added to each well: Major Histocompatability Complex (MHC) Class II (M5114, ATCC, Rockville Md.), MHC Class I (M1/42, ATCC), Anti-IgD (JA12.5, ATCC, Rockville, Md.), Thymocyte (Thy)-1 (JIJ, ATCC), B220 (14.8, ATCC), Kappa light chain (187, ATCC), IL-2 Receptor (7D4, ATCC), Lyt-1 (7.313, ATCC) and CD23 (biotinylated B3B4) and incubated on ice for 30 minutes. 100 μl 10% BSA 0.1% sodium azide is added to each well, then the plates are centrifuged at 1200 rpm for 10 minutes. The liquid is removed by aspiration and the cell pellets are resuspended in 100 μl FACS Buffer, and centrifuged at 1200 rpm for 5 minutes. […] Samples are transferred to individual tubes and 10,000 cells are analyzed. Using the Lysis software (Becton Dickinson, Mountain View, Calif.) the mean channel log fluorescence and percent positive cells are determined for the entire cell population. […]

SMILES: CCCCC(C)(O)C/C=C/[C@H]1[C@H](O)CC(=O)[C@@H]1C/C=C\CCCC(=O)OC (mixture of isomers) [(±) methyl 11α,16-dihydroxy-16-methyl-9-oxoprosta-5Z,13E-dien-1-oate]
- Percentage Positive Cells (anti-IgD stimulated mice, 20 μg days 3 and 4, day 7 (PBS 20.4)): 11.6 ± 1.6%
- Mean Channel Log Fluorescence (anti-IgD stimulated mice, 20 μg days 3 and 4, day 7 (PBS 99)): 95 ± 1.5
- Percentage Positive Cells (unstimulated mice, 20 μg (PBS 46.6)): 44.2 ± 6.6%
- Mean Channel Log Fluorescence (unstimulated mice, 20 μg (PBS 95)): 94 ± 3.2
